How the values were obtained:
Assay in all cases: IP kinase assay, GST-P70S6K peptide, anti-p-P70S6K Thr389 immunoblot
Type in all cases: biochemical
Conditions in all cases: […] inhibitor, […] ATP, […] MgCl2, pH […] C; ATP-competitive
mTORC1 = mTORC1 (Homo sapiens, UniProt P42345)
mTORC2 = mTORC2 (Homo sapiens, UniProt P42345)
mTORC3 = mTORC3 (Homo sapiens, UniProt P42345)

Row | SMILES | IP kinase assay, GST-P70S6K peptide, anti-p-P70S6K Thr389 immunoblot (mTORC1) | IP kinase assay, GST-P70S6K peptide, anti-p-P70S6K Thr389 immunoblot (mTORC2) | IP kinase assay, GST-P70S6K peptide, anti-p-P70S6K Thr389 immunoblot (mTORC3)
1 | COc1ccc(-c2ccc3c(N4CCOC[C@@H]4C)nc(N4CCOC[C@@H]4C)nc3n2)cc1CO [AZD-8055] | inhibited the kinase activity of all mTORCs | inhibited the kinase activity of all mTORCs | preincubation with OSI-27 or AZD-8055 at an mTOR-specific concentration inhibited the kinase activity
2 | COc1cccc2cc(-c3nc([C@H]4CC[C@H](C(=O)O)CC4)n4ncnc(N)c34)[nH]c12 [OSI-27] | inhibited the kinase activity of all mTORCs | inhibited the kinase activity of all mTORCs | preincubation with OSI-27 or AZD-8055 at an mTOR-specific concentration inhibited the kinase activity

From article PMC6156121 (Science Advances, 2018)
